Measurements: patent publication US20090118332A1, “Therapeutic Agents - 551” (AstraZeneca AB, priority 2006, published 2009)

Target: T1, human Fatty Acid Synthase (Homo sapiens, UniProt P49327)
T1 construct: made in house
Assay: Human FAS enzyme assay (decrease in NADPH fluorescence)
Format: biochemical
Settings: % inhibition at a concentration of 100 μmolar
Description: Human and Rat FAS Enzyme Assay.
Fatty acid synthase is an enzyme complex that harbours seven enzymatic activities catalysing the reductive synthesis of long chain fatty acids from acetyl CoA and malonyl CoA to palmitate. When acetyl CoA and malonyl CoA are forming palmitate NADPH is consumed forming NADP. Since NADPH is fluorescent but not NADP the reaction can be measured by analysing the decrease in fluorescence.
Compounds were added to a black 384 well plate (Matrix) in a volume of 5 μl consisting of 20% DMSO and 80% Tris buffer pH 7.5, at a top concentration of 1 mM. NADPH, 30 μl of 166.6 μM, formulated in assay buffer (0.1M Tris ph7.5, 0.1 mM EDTA, 1 mM glutathione, 0.05% BSA), was then added to all of the wells of the plate. Fatty acid synthase Human or rat enzyme (0.4 μg, produced in house), dissolved in 20 mM Tris/HCl pH 7.5, 5 mM BOG, 1 mM TCEP, 10% glycerol, 1 mM EDTA, 150 mM NaCl, was then added to the plate in a volume of 10 μl. Enzyme was added to all but the last two columns of the plate, to which, 10 μl of assay buffer was added (0.1M Tris ph7.5, 0.1 mM EDTA, 1 mM glutathione, 0.05% BSA) to provide a no enzyme assay control. Following a 15-minute incubation period, at room temperature, the plates were read on an Envision plate reader using 340 nm excitation and 460 nm emission filters. This served as a time zero background read. Substrates (an equal mix of both malonyl and acetyl CoA) were then added to the plates in a total volume of 5 μl. The concentrations of malonyl and acetyl CoA in the mixture were 500 μM and 150 μM respectively. Both were prepared as 10 mM stock solutions in distilled water and were subsequently diluted to working concentrations in assay buffer. Plates were then incubated for a further 60 minutes, at room temperature, before being read again on the Envision reader using the same parameters as previously used. The data was analysed by subtracting the background time zero data from that generated following the final 60 minute incubate and the percent inhibition compared to the maximum and minimum assay controls was determined. Sigmoid curves were fitted using Origin 7.5 Client software and IC50 values were determined.

T1 sequence (P49327 whole entry): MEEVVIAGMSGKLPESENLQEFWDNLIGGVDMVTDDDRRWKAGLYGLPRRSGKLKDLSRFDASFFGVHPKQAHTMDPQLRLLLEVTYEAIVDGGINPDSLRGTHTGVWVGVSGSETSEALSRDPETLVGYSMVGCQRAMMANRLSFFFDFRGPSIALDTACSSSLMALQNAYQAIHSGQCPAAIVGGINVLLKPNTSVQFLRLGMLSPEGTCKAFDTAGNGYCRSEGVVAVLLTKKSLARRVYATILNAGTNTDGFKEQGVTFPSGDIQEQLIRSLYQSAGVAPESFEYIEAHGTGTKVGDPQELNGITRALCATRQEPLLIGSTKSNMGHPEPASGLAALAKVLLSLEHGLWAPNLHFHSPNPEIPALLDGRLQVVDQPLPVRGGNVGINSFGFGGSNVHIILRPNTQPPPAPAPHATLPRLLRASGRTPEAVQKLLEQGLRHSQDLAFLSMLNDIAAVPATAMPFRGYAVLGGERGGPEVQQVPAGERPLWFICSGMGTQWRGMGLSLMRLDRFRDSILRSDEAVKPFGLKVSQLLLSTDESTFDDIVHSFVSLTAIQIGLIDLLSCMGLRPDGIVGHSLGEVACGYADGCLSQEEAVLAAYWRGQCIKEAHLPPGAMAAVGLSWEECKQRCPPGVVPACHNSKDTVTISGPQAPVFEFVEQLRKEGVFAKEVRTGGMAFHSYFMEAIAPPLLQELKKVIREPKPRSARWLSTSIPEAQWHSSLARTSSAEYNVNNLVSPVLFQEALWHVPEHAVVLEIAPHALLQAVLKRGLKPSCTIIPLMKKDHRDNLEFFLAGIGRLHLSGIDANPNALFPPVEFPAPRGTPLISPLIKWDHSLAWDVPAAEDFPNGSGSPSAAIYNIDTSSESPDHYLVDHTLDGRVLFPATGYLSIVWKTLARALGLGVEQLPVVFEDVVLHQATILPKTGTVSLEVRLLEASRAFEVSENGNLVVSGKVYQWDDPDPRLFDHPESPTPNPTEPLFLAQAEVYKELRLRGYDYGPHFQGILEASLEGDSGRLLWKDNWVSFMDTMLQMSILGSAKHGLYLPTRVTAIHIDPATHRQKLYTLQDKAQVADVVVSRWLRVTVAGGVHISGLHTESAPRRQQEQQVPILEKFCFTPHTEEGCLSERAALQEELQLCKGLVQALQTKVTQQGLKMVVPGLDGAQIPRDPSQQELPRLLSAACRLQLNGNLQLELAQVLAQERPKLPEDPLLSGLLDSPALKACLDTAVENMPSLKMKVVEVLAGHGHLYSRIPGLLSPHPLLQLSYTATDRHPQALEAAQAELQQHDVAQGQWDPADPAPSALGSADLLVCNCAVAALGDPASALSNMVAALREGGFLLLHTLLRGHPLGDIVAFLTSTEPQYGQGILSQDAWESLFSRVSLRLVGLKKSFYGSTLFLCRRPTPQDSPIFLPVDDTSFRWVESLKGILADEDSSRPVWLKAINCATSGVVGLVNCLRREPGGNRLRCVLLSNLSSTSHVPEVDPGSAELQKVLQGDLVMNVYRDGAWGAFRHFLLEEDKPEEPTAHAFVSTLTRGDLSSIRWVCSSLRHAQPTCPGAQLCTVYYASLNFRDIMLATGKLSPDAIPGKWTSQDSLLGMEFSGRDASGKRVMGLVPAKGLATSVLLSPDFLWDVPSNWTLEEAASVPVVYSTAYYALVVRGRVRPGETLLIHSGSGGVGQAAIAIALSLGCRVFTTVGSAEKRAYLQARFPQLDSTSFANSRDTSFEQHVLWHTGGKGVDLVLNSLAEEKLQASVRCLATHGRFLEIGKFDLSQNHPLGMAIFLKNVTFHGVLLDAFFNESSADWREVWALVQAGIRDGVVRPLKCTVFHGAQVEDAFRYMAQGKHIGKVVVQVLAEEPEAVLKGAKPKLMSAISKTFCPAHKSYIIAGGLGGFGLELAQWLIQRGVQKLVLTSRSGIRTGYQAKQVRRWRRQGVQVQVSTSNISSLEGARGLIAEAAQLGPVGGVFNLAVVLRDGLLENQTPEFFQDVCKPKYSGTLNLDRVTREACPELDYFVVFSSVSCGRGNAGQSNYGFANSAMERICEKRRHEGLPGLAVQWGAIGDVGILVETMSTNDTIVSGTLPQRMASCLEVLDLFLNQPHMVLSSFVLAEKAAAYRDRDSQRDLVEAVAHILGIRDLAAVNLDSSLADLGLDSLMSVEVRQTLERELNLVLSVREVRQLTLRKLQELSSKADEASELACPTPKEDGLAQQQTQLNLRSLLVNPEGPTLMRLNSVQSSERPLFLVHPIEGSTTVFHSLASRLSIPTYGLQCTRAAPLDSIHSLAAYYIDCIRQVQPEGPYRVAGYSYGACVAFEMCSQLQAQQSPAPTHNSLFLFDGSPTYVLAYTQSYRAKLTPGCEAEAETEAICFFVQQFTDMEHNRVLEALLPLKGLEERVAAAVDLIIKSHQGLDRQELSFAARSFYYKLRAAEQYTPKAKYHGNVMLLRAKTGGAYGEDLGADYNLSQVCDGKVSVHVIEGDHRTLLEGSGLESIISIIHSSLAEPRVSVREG

Row | inhibition at 100 µM [%] | SMILES
1 | 87.7 | Cc1ccc(C(=O)N2CCC(c3ccc(C#N)cc3)CC2)cc1NC(=O)NC(C)Cc1c[nH]c2ccccc12 (racemic) [Example 70, (RS)-1-[5-[4-(4-cyanophenyl)piperidine-1-carbonyl]-2-methyl-phenyl]-3-[1-(1H-indol-3-yl)propan-2-yl]urea]
2 | 90.4 | Cc1ccc(C(=O)N2CCC(c3ccc(C#N)cc3)CC2)cc1NC(=O)NC1CCCCC1O (racemic) [Example 187, (RS) 1-[5-[4-(4-cyanophenyl)piperidine-1-carbonyl]-2-methyl-phenyl]-3-(2-hydroxycyclohexyl)urea]
3 | 88.6 | Cc1ccc(C(=O)N2CCC(c3ccc(C#N)cc3)CC2)cc1NC(=O)NCC(O)C(F)(F)F (racemic) [Example 195, (RS)-1-[5-[4-(4-cyanophenyl)piperidine-1-carbonyl]-2-methyl-phenyl]-3-(3,3,3-trifluoro-2-hydroxy-propyl)urea]
4 | 77.1 | Cc1ccc(C(=O)N2CCC(c3ccc(C#N)cc3)CC2)cc1NC(=O)NC1CCCNC1=O (racemic) [Example 236, (RS)-1-[5-[4-(4-cyanophenyl)piperidine-1-carbonyl]-2-methyl-phenyl]-3-(2-oxo-3-piperidyl)urea]
5 | 86.5 | Cc1ccc(C(=O)N2CCC(c3ccc(C#N)cc3)CC2)cc1NC(=O)NC1Cc2cccnc2NC1=O (racemic) [Example 239, (RS)-1-[5-[4-(4-cyanophenyl)piperidine-1-carbonyl]-2-methyl-phenyl]-3-(2-oxo-3,4-dihydro-1H-1,8-naphthyridin-3-yl)urea]
6 | 90.9 | Cc1ccc(C(=O)N2CCC(c3ccc(C#N)cc3)CC2)cc1NC(=O)NC(C)COc1ccccc1 (racemic) [Example 253, (RS)-1-[5-[4-(4-cyanophenyl)piperidine-1-carbonyl]-2-methyl-phenyl]-3-(1-phenoxypropan-2-yl)urea]
7 | 102 | Cc1ccc(C(=O)N2CCC(c3ccc(C#N)cc3)CC2)cc1NC(=O)NC1CCCN(C)C1 (racemic) [Example 255, (RS)-1-[5-[4-(4-cyanophenyl)piperidine-1-carbonyl]-2-methyl-phenyl]-3-(1-methyl-3-piperidyl)urea]
8 | 102 | CCc1ccc(C(=O)N2CCC(c3ccc(C#N)cc3)CC2)cc1NC(=O)NCC1COCCO1 (racemic) [Example 259, (RS)-1-[5-[4-(4-cyanophenyl)piperidine-1-carbonyl]-2-ethyl-phenyl]-3-(1,4-dioxan-2-ylmethyl)urea]
9 | 92.8 | Cc1ccc(C(=O)N2CCC(c3ccc(C#N)cc3)CC2)cc1NC(=O)N[C@H]1CCCC[C@H]1N (relative stereo) [Example 304, 3-[(cis)-2-aminocyclohexyl]-1-[5-[4-(4-cyanophenyl)piperidine-1-carbonyl]-2-methyl-phenyl]urea]
10 | 78.8 | Cc1ccc(C(=O)N2CCC(c3ccc(C#N)cc3)CC2)cc1NC(=O)N[C@@H]1CCCC[C@H]1N (relative stereo) [Example 305, 3-[(trans)-2-aminocyclohexyl]-1-[5-[4-(4-cyanophenyl)piperidine-1-carbonyl]-2-methyl-phenyl]urea]
11 | 96.1 | Cc1ccc(C(=O)N2CCC(c3ccc(C#N)cc3)CC2)cc1NC(=O)N[C@H]1CCCC[C@H]1NS(C)(=O)=O (relative stereo) [Example 307, 1-[5-[4-(4-cyanophenyl)piperidine-1-carbonyl]-2-methyl-phenyl]-3-[(cis)-2-methanesulfonamidocyclohexyl]urea]
12 | 91.5 | CC(=O)N[C@@H]1CCCC[C@@H]1NC(=O)Nc1cc(C(=O)N2CCC(c3ccc(C#N)cc3)CC2)ccc1C (relative stereo) [Example 308, N-[(cis)-2-[[5-[4-(4-cyanophenyl)piperidine-1-carbonyl]-2-methyl-phenyl]carbamoylamino]cyclohexyl]acetamide]
13 | 96.7 | CCS(=O)(=O)N[C@@H]1CCCC[C@@H]1NC(=O)Nc1cc(C(=O)N2CCC(c3ccc(C#N)cc3)CC2)ccc1C (relative stereo) [Example 309, 3-[5-[4-(4-cyanophenyl)piperidine-1-carbonyl]-2-methyl-phenyl]-1-[(cis)-2-(ethylsulfonylamino)cyclohexyl]urea]
14 | 104 | Cc1ccc(C(=O)N2CCC(c3ccc(C#N)cc3)CC2)cc1NC(=O)N[C@H]1CCCC[C@@H]1NS(C)(=O)=O (relative stereo) [Example 315, 1-[5-[4-(4-cyanophenyl)piperidine-1-carbonyl]-2-methyl-phenyl]-3-[(trans)-2-methanesulfonamidocyclohexyl]urea]
15 | 94.9 | Cc1ccc(C(=O)N2CCC(c3ccc(C#N)cc3)CC2)cc1NC(=O)N[C@@H]1CCCC[C@@H]1NS(=O)(=O)N(C)C (relative stereo) [Example 317, 1-[5-[4-(4-cyanophenyl)piperidine-1-carbonyl]-2-methyl-phenyl]-3-[(cis)-2-(dimethylsulfamoylamino)cyclohexyl]urea]
16 | 84.3 | Cc1ccc(C(=O)N2CCC(c3ccc(C#N)cc3)CC2)cc1NC(=O)N[C@@H]1CCCC[C@H]1NS(=O)(=O)N(C)C (relative stereo) [Example 319, 1-[5-[4-(4-cyanophenyl)piperidine-1-carbonyl]-2-methyl-phenyl]-3-[(trans)-2-(dimethylsulfamoylamino)cyclohexyl]urea]

Row | SMILES | inhibition at 100 µM [%]
17 | Cc1ccc(C(=O)N2CCC(c3ccc(C#N)cc3)CC2)cc1NC(=O)NC1CN2CCC1CC2 (stereo in doubt) [Example 270, 3-[(8S)-1-azabicyclo[2.2.2]oct-8-yl]-1-[5-[4-(4-cyanophenyl)piperidine-1-carbonyl]-2-methyl-phenyl]urea] | 89.4

Same assay, conditions: FAS enzyme assay, IC50 from fitted sigmoid curves

Row | SMILES | IC50, inhibition of human Fatty Acid Synthase
18 | CC(=O)N[C@@H]1CCCC[C@H]1NC(=O)Nc1cc(C(=O)N2CCC(c3ccc(C#N)cc3)CC2)ccc1C (relative stereo) [N-[(trans)-2-[[5-[4-(4-cyanophenyl)piperidine-1-carbonyl]-2-methylphenyl]carbamoylamino]cyclohexyl]acetamide] | do not have IC50s in the range of about 0.001 μM to about 30 μM
19 | Cc1ccc(C(=O)N2CCC(O)(c3ccccc3)CC2)cc1NC(=O)NC(C)C [1-[5-(4-hydroxy-4-phenylpiperidine-1-carbonyl)-2-methylphenyl]-3-propan-2-ylurea] | do not have IC50s in the range of about 0.001 μM to about 30 μM
20 | Cc1ccc(C(=O)N2CCC(c3ccccc3C#N)CC2)cc1NC(=O)NC(C)C [1-[5-[4-(2-cyanophenyl)piperidine-1-carbonyl]-2-methylphenyl]-3-propan-2-ylurea] | do not have IC50s in the range of about 0.001 μM to about 30 μM
21 | Cc1ccc(C(=O)N2CCC(O)(c3ccccc3F)CC2)cc1NC(=O)NC(C)C [1-[5-[4-(2-fluorophenyl)-4-hydroxypiperidine-1-carbonyl]-2-methylphenyl]-3-propan-2-ylurea] | do not have IC50s in the range of about 0.001 μM to about 30 μM
22 | COc1ccccc1C1CCN(C(=O)c2ccc(C)c(NC(=O)NC(C)C)c2)CC1 [1-[5-[4-(2-methoxyphenyl)piperidine-1-carbonyl]-2-methylphenyl]-3-propan-2-ylurea] | do not have IC50s in the range of about 0.001 μM to about 30 μM
23 | Cc1ccc(C(=O)N2CCC(c3cccc(Cl)c3)CC2)cc1NC(=O)NC(C)C [1-[5-[4-(3-chlorophenyl)piperidine-1-carbonyl]-2-methylphenyl]-3-propan-2-ylurea] | do not have IC50s in the range of about 0.001 μM to about 30 μM
24 | Cc1ccc(C(=O)N2CCC(c3cccc(F)c3)CC2)cc1NC(=O)NC(C)C [1-[5-[4-(3-fluorophenyl)piperidine-1-carbonyl]-2-methylphenyl]-3-propan-2-ylurea] | do not have IC50s in the range of about 0.001 μM to about 30 μM
25 | COc1cccc(C2CCN(C(=O)c3ccc(C)c(NC(=O)NC(C)C)c3)CC2)c1 [1-[5-[4-(3-methoxyphenyl)piperidine-1-carbonyl]-2-methylphenyl]-3-propan-2-ylurea] | do not have IC50s in the range of about 0.001 μM to about 30 μM
26 | Cc1ccc(C(=O)N2CCC(O)(c3cccc(C(F)(F)F)c3)CC2)cc1NC(=O)NC(C)C [1-[5-[4-hydroxy-4-[3-(trifluoromethyl)phenyl]piperidine-1-carbonyl]-2-methylphenyl]-3-propan-2-ylurea] | do not have IC50s in the range of about 0.001 μM to about 30 μM
27 | COc1ccc(NC(=O)NC(C)C)cc1C(=O)N1CCC(c2ccc(C#N)cc2)CC1 [3-[3-[4-(4-cyanophenyl)piperidine-1-carbonyl]-4-methoxyphenyl]-1-propan-2-ylurea] | do not have IC50s in the range of about 0.001 μM to about 30 μM
